The values that follow come from patent US9303012B2, “Pyridine-2-amides useful as CB2 agonists” (Hoffmann-La Roche Inc., priority 2012, dated 2016).

Each structure is given as a SMILES string. pEC50: −log10 of the molar value.

In test [1] the target is human CB1 receptors (Homo sapiens (Human), UniProt P21554). The test is described as follows: functional cAMP assay, CHO cells expressing human CB1 receptors. Format: cell-based. The method, boiled down: (§1)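 Compound exposure lasted 30 min at 30 °C in IBMX (1 mM)-containing Krebs Ringer bicarbonate buffer, applied to human CB1- or CB2-expressing CHO cells. Lysates were read by time-resolved FRET cAMP detection, converted via cAMP standard curve (10 μM–0.13 nM), and EC50 values calculated.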
For orientation: cAMP levels reflect the balance of adenylyl cyclase and phosphodiesterase activity.

In test [2] the target is human CB2 receptors (Homo sapiens (Human), UniProt P34972). Briefly: functional cAMP assay, CHO cells expressing human CB2 receptors. Format: cell-based. The method, boiled down: as §1
human CB2 receptors, sequence (P34972 whole entry): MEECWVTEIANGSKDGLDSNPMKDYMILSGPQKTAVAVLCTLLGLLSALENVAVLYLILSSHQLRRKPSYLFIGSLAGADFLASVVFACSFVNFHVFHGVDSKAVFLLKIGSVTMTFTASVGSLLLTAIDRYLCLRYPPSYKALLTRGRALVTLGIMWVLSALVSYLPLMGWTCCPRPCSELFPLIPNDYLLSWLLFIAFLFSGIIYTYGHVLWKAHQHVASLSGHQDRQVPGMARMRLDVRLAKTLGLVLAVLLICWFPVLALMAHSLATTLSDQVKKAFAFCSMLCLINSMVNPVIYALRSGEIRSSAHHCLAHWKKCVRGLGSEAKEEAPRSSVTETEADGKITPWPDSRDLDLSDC

human CB1 receptors, sequence (P21554 whole entry): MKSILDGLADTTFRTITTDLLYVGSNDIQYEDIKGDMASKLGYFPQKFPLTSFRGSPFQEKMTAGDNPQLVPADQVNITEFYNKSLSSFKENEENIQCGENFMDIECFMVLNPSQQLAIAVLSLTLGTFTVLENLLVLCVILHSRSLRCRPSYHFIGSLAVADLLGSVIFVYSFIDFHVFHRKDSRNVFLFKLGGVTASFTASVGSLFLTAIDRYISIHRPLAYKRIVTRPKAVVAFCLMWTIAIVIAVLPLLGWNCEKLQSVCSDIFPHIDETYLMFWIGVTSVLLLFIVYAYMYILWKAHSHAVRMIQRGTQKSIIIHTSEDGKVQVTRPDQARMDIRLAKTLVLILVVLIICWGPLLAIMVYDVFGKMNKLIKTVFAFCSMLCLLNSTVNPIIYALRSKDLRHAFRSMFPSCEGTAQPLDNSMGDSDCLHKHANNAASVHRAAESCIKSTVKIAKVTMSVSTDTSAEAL

By pEC50 is commonly meant −log10 of the EC50, conventionally taken in molar units. Higher therefore signals a low EC50. For the compound `O=C(c1ccc(N2CC(F)(F)C2)c(OCC2CC2)n1)N1C[C@@H]2C[C@H]1CS2` [Example 62, [6-Cyclopropylmethoxy-5-(3,3-difluoro-azetidin-1-yl)-pyridin-2-yl]-(1S,4S)-2-thia-5-aza-bicyclo[2.2.1]hept-5-yl-methanone], the negative-log EC50 (pEC50) was less than 5.00 in test [1] and 8.04 in test [2].

Turning to `O=C(c1ccc(N2CC(F)(F)C2)c(OCC2CC2)n1)N1C[C@@H]2C[C@H]1CN2Cc1ccccc1` [Example 63, ((1S,4S)-5-Benzyl-2,5-diaza-bicyclo[2.2.1]hept-2-yl)-[6-cyclopropylmethoxy-5-(3,3-difluoro-azetidin-1-yl)-pyridin-2-yl]-methanone], the pEC50 is less than 5.00 in test [1] and 6.70 in test [2].

With `CC1C(c2ccccc2)CCCN1C(=O)c1ccc(N2CC(F)(F)C2)c(OCC2CC2)n1` (stereo not drawn) [Example 64, [6-Cyclopropylmethoxy-5-(3,3-difluoro-azetidin-1-yl)-pyridin-2-yl]-(2-methyl-3-phenyl-piperidin-1-yl)-methanone], the pEC50 is less than 5.00 in test [1] and 7.39 in test [2].

Regarding `O=C(c1ccc(N2CC(F)(F)C2)c(OCC2CC2)n1)N1C[C@@H]2C[C@H]1CO2` [Example 65, [6-Cyclopropylmethoxy-5-(3,3-difluoro-azetidin-1-yl)-pyridin-2-yl]-(1S,4S)-2-oxa-5-aza-bicyclo[2.2.1]hept-5-yl-methanone], the values for the pEC50 in test [1] and in test [2] were less than 5.00 and 7.00, respectively.

As for `CC1(C)CC(O)CCN1C(=O)c1ccc(N2CC(F)(F)C2)c(OCC2CC2)n1` (stereo not drawn) [Example 66, [6-Cyclopropylmethoxy-5-(3,3-difluoro-azetidin-1-yl)-pyridin-2-yl]-(4-hydroxy-2,2-dimethyl-piperidin-1-yl)-methanone], the negative logarithm of the EC50 (pEC50) is less than 5.00 in test [1] and 8.25 in test [2].

As to `CCOC(=O)C1CCCN(C(=O)c2ccc(N3CC(F)(F)C3)c(OCC3CC3)n2)C1c1ccccc1` (stereo not drawn) [Example 67, 1-[6-Cyclopropylmethoxy-5-(3,3-difluoro-azetidin-1-yl)-pyridine-2-carbonyl]-2-phenyl-piperidine-3-carboxylic acid ethyl ester], the figures for the negative-log EC50 (pEC50) in test [1] and in test [2] were less than 5.00 and 6.43, respectively.

For the compound `NC(=O)[C@@H]1CC(F)(F)CN1C(=O)c1ccc(C2CC2)c(OCC2CC2)n1` [Example 68, (S)-1-(5-Cyclopropyl-6-cyclopropylmethoxy-pyridine-2-carbonyl)-4,4-difluoro-pyrrolidine-2-carboxylic acid amide], the negative logarithm of the EC50 (pEC50) in test [1] is less than 5.00; in test [2] it was 8.57.

For `NC(=O)[C@@H]1C[C@H](F)CN1C(=O)c1ccc(C2CC2)c(OCC2CC2)n1` [Example 69, (2S,4S)-1-(5-Cyclopropyl-6-cyclopropylmethoxy-pyridine-2-carbonyl)-4-fluoro-pyrrolidine-2-carboxylic acid amide], the negative-log EC50 (pEC50) in test [1] was less than 5.00; in test [2] it was 5.98.

For `O=C(c1ccc(N2CC(F)(F)C2)c(OCC2CC2)n1)N1CC2CCOC2C1` (stereo not drawn) [Example 70, [6-Cyclopropylmethoxy-5-(3,3-difluoro-azetidin-1-yl)-pyridin-2-yl]-(hexahydrofuro[2,3-c]pyrrol-5-yl)-methanone], the pEC50 in test [1] is less than 5.00; in test [2], 6.98.

For the compound `O=C(c1ccc(N2CC(F)(F)C2)c(OCC2CC2)n1)N1CC2(C1)CS(=O)(=O)C2` [Example 71, [6-Cyclopropylmethoxy-5-(3,3-difluoro-azetidin-1-yl)-pyridin-2-yl]-(2,2-dioxo-2λ6-thia-6-aza-spiro[3.3]hept-6-yl)-methanone], the pEC50 in test [1] is less than 5.00; in test [2], 6.35.

For `CC(C)(C)N(CCC(N)=O)C(=O)c1ccc(N2CC(F)(F)C2)c(OCC2CC2)n1` [Example 72, 6-Cyclopropylmethoxy-5-(3,3-difluoro-azetidin-1-yl)-pyridine-2-carboxylic acid tert-butyl-(2-carbamoyl-ethyl)-amide], the negative logarithm of the EC50 (pEC50) is less than 5.00 in test [1] and 6.18 in test [2].

Turning to `NC(=O)[C@@H]1CCCN1C(=O)c1ccc(C2CC2)c(OCC2CC2)n1` [Example 73, (S)-1-(5-Cyclopropyl-6-cyclopropylmethoxy-pyridine-2-carbonyl)-pyrrolidine-2-carboxylic acid amide], the negative logarithm of the EC50 (pEC50) in test [1] is less than 5.00; in test [2] it was 6.20.

Regarding `CC(C)(C)OC(=O)N1CCC2(CCCN2C(=O)c2ccc(N3CC(F)(F)C3)c(OCC3CC3)n2)CC1` [Example 74, 1-[6-Cyclopropylmethoxy-5-(3,3-difluoro-azetidin-1-yl)-pyridine-2-carbonyl]-1,8-diaza-spiro[4.5]decane-8-carboxylic acid tert-butyl ester], the values for the pEC50 in test [1] and in test [2] were less than 5.00 and 7.94, respectively.

`NC(=O)[C@@H]1CC(F)(F)CN1C(=O)c1ccc(C2CC2)c(OCC2CCCO2)n1` (stereo partly drawn) [Example 75, (S)-1-{5-Cyclopropyl-6-[(R,S)-1-(tetrahydro-furan-2-yl)methoxy]-pyridine-2-arbonyl}-4,4-difluoro-pyrrolidine-2-carboxylic acid amide]: the pEC50 was less than 5.00 in test [1] and 7.79 in test [2].

For `NC(=O)[C@@H]1CC(F)(F)CN1C(=O)c1ccc(C2CC2)c(Cc2ccc(F)cc2)n1` [Example 76, (S)-1-[5-Cyclopropyl-6-(4-fluoro-benzyl)-pyridine-2-carbonyl]-4,4-difluoro-pyrrolidine-2-carboxylic acid amide], the pEC50 in test [1] is 6.78; in test [2] it was 9.70.

For `CC1(C)C[C@H](C(N)=O)N(C(=O)c2ccc(N3CC(F)(F)C3)c(OCC3CC3)n2)C1` [Example 77, (+)-1-[6-Cyclopropylmethoxy-5-(3,3-difluoro-azetidin-1-yl)-pyridine-2-carbonyl]-4,4-dimethyl-pyrrolidine-2-carboxylic acid amide], the pEC50 was less than 5.00 in test [1] and 6.71 in test [2].

On to `CC1(C)C[C@@H](C(N)=O)N(C(=O)c2ccc(N3CC(F)(F)C3)c(OCC3CC3)n2)C1` [Example 78, (−)-1-[6-Cyclopropylmethoxy-5-(3,3-difluoro-azetidin-1-yl)-pyridine-2-carbonyl]-4,4-dimethyl-pyrrolidine-2-carboxylic acid amide], for which the values for the pEC50 in test [1] and in test [2] were less than 5.00 and 8.92, respectively.

Regarding `NC(=O)[C@@H]1C[C@H](O)CN1C(=O)c1ccc(N2CC(F)(F)C2)c(OCC2CC2)n1` [Example 79, (2S,4S)-1-[6-Cyclopropylmethoxy-5-(3,3-difluoro-azetidin-1-yl)-pyridine-2-carbonyl]-4-hydroxy-pyrrolidine-2-carboxylic acid amide], the negative-log EC50 (pEC50) is less than 5.00 in test [1] and 6.29 in test [2].

As for `NC(=O)[C@@H]1C[C@H](F)CN1C(=O)c1ccc(N2CC(F)(F)C2)c(OCC2CC2)n1` [Example 80, (2S,4S)-1-[6-Cyclopropylmethoxy-5-(3,3-difluoro-azetidin-1-yl)-pyridine-2-carbonyl]-4-fluoro-pyrrolidine-2-carboxylic acid amide], the values for the pEC50 in test [1] and in test [2] were less than 5.00 and 6.47, respectively.

For `Cc1nnc(CN(C(=O)c2ccc(N3CC(F)(F)C3)c(OCC3CC3)n2)C2CC2)o1` [Example 81, 6-Cyclopropylmethoxy-5-(3,3-difluoro-azetidin-1-yl)-pyridine-2-carboxylic acid cyclopropyl-(5-methyl-[1,3,4]oxadiazol-2-ylmethyl)-amide], the values for the pEC50 in test [1] and in test [2] were less than 5.00 and 6.19, respectively.

Take `O=C(c1ccc(N2CC(F)(F)C2)c(OCC2CC2)n1)N1CCC2(CC(O)CO2)C1` (stereo not drawn) [Example 82, [6-Cyclopropylmethoxy-5-(3,3-difluoro-azetidin-1-yl)-pyridin-2-yl]-(3-hydroxy-1-oxa-7-aza-spiro[4.4]non-7-yl)-methanone]: the figures for the pEC50 in test [1] and in test [2] were less than 5.00 and 6.45, respectively.

Take `O=C(c1ccc(N2CC(F)(F)C2)c(OCC2CC2)n1)N1CC2(CC(O)CO2)C1` (stereo not drawn) [Example 83, [6-Cyclopropylmethoxy-5-(3,3-difluoro-azetidin-1-yl)-pyridin-2-yl]-(7-hydroxy-5-oxa-2-aza-spiro[3.4]oct-2-yl)-methanone]: the pEC50 in test [1] is less than 5.00; in test [2] it was 6.12.

Consider `CC1(C)CCCN1C(=O)c1ccc(C2CC2)c(OCC(F)(F)C(F)(F)F)n1` [Example 84, [5-Cyclopropyl-6-(2,2,3,3,3-pentafluoro-propoxy)-pyridin-2-yl]-(2,2-dimethyl-pyrrolidin-1-yl)-methanone], for which the pEC50 in test [1] is less than 5.00; in test [2], 7.72.

`O=C(c1ccc(N2CC(F)(F)C2)c(OCC2CC2)n1)N1C[C@H]2CC[C@@H](C1)O2` [Example 85, [6-Cyclopropylmethoxy-5-(3,3-difluoro-azetidin-1-yl)-pyridin-2-yl]-(1S,5R)-8-oxa-3-aza-bicyclo[3.2.1]oct-3-yl-methanone]: the pEC50 in test [1] is less than 5.00; in test [2] it was 7.07.

For `O=C(c1ccc(N2CC(F)(F)C2)c(OCC2CC2)n1)N1[C@@H]2CC[C@H]1COC2` [Example 86, [6-Cyclopropylmethoxy-5-(3,3-difluoro-azetidin-1-yl)-pyridin-2-yl]-(1R,5S)-3-oxa-8-aza-bicyclo[3.2.1]oct-8-yl-methanone], the pEC50 in test [1] is less than 5.00; in test [2], 7.14.

In the case of `NC(=O)[C@H]1CC(F)(F)CN1C(=O)c1ccc(C2CC2)c(OCC(F)(F)C(F)(F)F)n1` [Example 87, (R)-1-[5-Cyclopropyl-6-(2,2,3,3,3-pentafluoro-propoxy)-pyridine-2-carbonyl]-4,4-difluoro-pyrrolidine-2-carboxylic acid amide], the pEC50 is less than 5.00 in test [1] and 6.11 in test [2].

For `NC(=O)C1CCCCN1C(=O)c1ccc(C2CC2)c(OCC2CC2)n1` (stereo not drawn) [Example 88, 1-(5-Cyclopropyl-6-cyclopropylmethoxy-pyridine-2-carbonyl)-piperidine-2-carboxylic acid amide], the negative-log EC50 (pEC50) was less than 5.00 in test [1] and 6.74 in test [2].
